“Also recorded” adds a separate entry of the source.
Legend:
[1] = tested on: OATP transporter (U87 cells); assay: Inhibition of HMC-FH uptake by pre-incubation with inhibitors; format: cell-based; details: fluorescence microscopy and flow cytometry
From the text: Next, we tested the ability of HMC-FH to target and internalize into various GBM cancer cell lines.

[2] = tested on: intracranial U87 GBM tumors; assay: Survival studies (Kaplan-Meier) of mice with intracranial U87 tumors; format: in vivo; details: treated 14 days after tumor implantation, 3 umol drug/kg i.v. twice a week for three weeks, n=5
Procedure: A dose of 3 umol drug/kg, 22 mM Fe (FH) was administered i.v via tail vein injection twice a week for […].
(§1) A dose of 3 umol drug/kg, 22 mM Fe (FH) was administered i.v. via tail vein injection twice a week for three weeks.
as §1
HMC-FH(PXL) and HMC-FH(BFA) increase the survival of mice with GBM tumors. In these experiments, we injected mice (n=5) with intracranial U87 GBM tumors with HMC-FH encapsulated with either paclitaxel (PTX) or docetaxel (DXT). As control, we injected either PBS or the corresponding drug along at equal concentrations. In initial studies, treatment started “late”, 14 days after tumor implantation. […] In additional studies, treatment was started earlier, 5 days after injection, to find out if an early treatment would improve survival. Impressive results were obtained by injecting HMC-FH(PXL), 5 days after tumor implantation.
In initial animal studies using BFA and HMC-FH(BFA), we injected mice (n=5) with intracranial U87 GBM tumors with either BFA (dissolved in DMSO) or HMC-FH(BFA) in saline. In these studies, treatment started “late”, 14 days after tumor implantation. […] The ability of BFA to cross the BBB has not been studied or reported, to our knowledge. However, due to its poor solubility, it is advantageous to encapsulate BFA in HMC-FH.

[3] = tested on: PC3 prostate cancer cells; assay: Transwell cell migration, PC3; format: cell-based; details: PC3, 24 h at 37° C.
Procedure: After incubation, nonmigratory cells and media were washed from transwells, and those cells that migrated to the bottom of the filters were, fixed and stained and imaged using a fluorescence Microscope. […] Quantification of the average number of cells per image that have migrated (FIG. 8C).

TMZ-resistant U87R cells = assay: Transwell cell migration, U87R; format: cell-based
Procedure: After incubation, nonmigratory cells and media were washed from transwells, and those cells that migrated to the bottom of the filters were, fixed and stained and imaged using a fluorescence Microscope (Keyence BZ-X7 00). Representative images (5 fields) were taken of treatment (2 uM of each-BFA, HMC-FH and HMC-FH (BFA, DMSO) for quantification.

[4] = tested on: LNCaP prostate cancer cells; assay: Transwell cell migration, LNCaP; format: cell-based; details: 24 h at 37° C.
[5] = tested on: intracranial U87MG tumors; details: mouse, in vivo
From the text: Mouse brains were extracted from the mouse skull, and tumors visualized and resected from the healthy brain while recording using SIRIS.

[6] = tested on: human intracranial U87MG tumors; assay: HMC-FH(PTX) treatment of nude mice with intracranial U87MG tumors; format: in vivo; details: six treatments, 1 mg HMC, 3 mg PTX and 4 mgFe/kg; treatment period 40 days after tumor inoculation
Procedure: Brain MRI images of treated mice (FIG. 46A). […] Corresponding mice body weight measurements (FIG. 46D).
The HMC-FH(PTX) was next used to treat nude mice with human intracranial U87MG tumors. […] It is not until after the treatment period that tumors start developing in the HMC-FH(PTX) treated mice (FIG. 46B).

`O=CC[C@@H](O)[C@H](O)[C@H](O)CO` [2-deoxyglucose] was tested. Which “effect of pre-incubation on HMC-FH uptake” value [1] did it give?
Its value is “do not block the internalization”.

How did the “effect of pre-incubation on HMC-FH uptake” value [1] turn out when `COC(=O)N[C@H](C(=O)N[C@@H](Cc1ccccc1)[C@@H](O)CN(Cc1ccc(-c2ccccn2)cc1)NC(=O)[C@@H](NC(=O)OC)C(C)(C)C)C(C)(C)C` [Atazanir] was run?
The value was “uptake and cell associated fluorescence was reduced; also recorded: inhibits HMC-FH internalization”.

`C[C@H]1CCC/C=C/[C@@H]2C[C@H](O)C[C@H]2[C@H](O)/C=C/C(=O)O1` [BFA, Brefeldin A] was tested. Which “survival, BFA formulations” value [2] did it give?
Its value is “significantly longer than in the control mice; also recorded: enhanced mice survival”.

What about the cell migration [3] of the same molecule?
The cell migration was “decreased migration”.

What about the cell migration (TMZ-resistant U87R cells; U87R, 2 uM, 24 h) of the same molecule?
Its cell migration is “decreased migration”.

And the cell migration (TMZ-resistant U87R cells; printed as U87 cells)?
Its cell migration is “decrease cell migration”.

With `CC(=O)O[C@@]12CO[C@@H]1C[C@H](O)[C@@]1(C)C(=O)[C@H](O)C3=C(C)[C@@H](OC(=O)[C@H](O)[C@@H](NC(=O)OC(C)(C)C)c4ccccc4)C[C@@](O)([C@@H](OC(=O)c4ccccc4)[C@H]21)C3(C)C` [DXT, docetaxel] as the molecule, how does the cell migration [4] read?
Its cell migration is “decreased migration”.

What about the cell migration [3] of the same molecule?
Its cell migration is “decreased migration”.

For `CC1(C)C(/C=C/C=C/C=C/C=C2\N(CCCCS(=O)(=O)[O-])c3ccc4ccccc4c3C2(C)C)=[N+](CCCCS(=O)(=O)[O-])c2ccc3ccccc3c21.[Na+]` [ICG], which “fluorescent labeling / localization to tumor” value [5] is on record?
The value was “does not show tumor localization”.

How did the “tumor growth / tumor detection by MRI or histopathology” value [6] turn out when `CC(=O)O[C@H]1C(=O)[C@@]2(C)[C@H]([C@H](OC(=O)c3ccccc3)[C@]3(O)C[C@H](OC(=O)[C@H](O)[C@@H](NC(=O)c4ccccc4)c4ccccc4)C(C)=C1C3(C)C)[C@]1(OC(C)=O)CO[C@@H]1C[C@@H]2O` [PTX, paclitaxel] was run?
Its value is “developed visible tumor”.

Reference: patent publication US20210113715A1, “TARGETED NANOPARTICLES FOR DIAGNOSING, DETECTING AND TREATING CANCER” (CEDARS-SINAI MEDICAL CENTER, priority 2018, published 2021)
